Experimental data taken from patent US20260250318A1, “COMPOSITIONS AND METHODS FOR CROSSING THE BLOOD BRAIN BARRIER” (VOYAGER THERAPEUTICS, INC., priority 2022, published 2026).

Assays:
brain = experiment: Matured TTM-001 and TTM-002 variants, NGS enrichment in mouse brain; assay type: in vivo, mice; conditions: relative to AAV9 control
[1] = tested on: brains, heart, liver, muscle, and DRG of the NHPs; experiment: Maturation of TTM-001 and TTM-002 capsids, NGS enrichment in NHP tissues; assay type: in vivo; conditions: relative to AAV9 control
Outline: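 Variants carry mutations within and flanking the loop IV peptide insert: positions 450–466 were triplet-randomized, while positions 449–466 received low-frequency point mutations. The combined pool went into two NHPs, and each peptide was scored by NGS enrichment ratio against AAV9.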

[2] = NGS fold-enrichment, brain of mice
[3] = NGS fold-enrichment, DRG of NHPs
[4] = NGS fold-enrichment, RNA, brain of NHPs
[5] = NGS fold-enrichment, heart of NHPs
[6] = NGS fold-enrichment, liver DNA of NHPs
[7] = NGS fold-enrichment, liver RNA of NHPs
[8] = NGS fold-enrichment, muscle of NHPs
[9] = NGS fold-enrichment, mouse brain
[10] = NGS fold-enrichment of RNA, NHP brain
[11] = NGS fold-enrichment, NHP liver DNA
[12] = NGS fold-enrichment, NHP liver RNA
[13] = NGS fold-enrichment, NHP muscle
[14] = NGS fold-enrichment of matured AAV capsid variants, NHP brain, RNA

| Sequence | Fold Enrichment relative to AAV9, Brain (Mouse) (brain; [2]) [fold] | Fold Enrichment relative to AAV9, DRG (NHP) [1, 3] [fold] | Fold Enrichment relative to AAV9, Brain (NHP) [1, 4] [fold] | Fold Enrichment relative to AAV9, Heart (NHP) [1, 5] [fold] | Fold Enrichment relative to AAV9, Liver DNA (NHP) [1, 6] [fold] | Fold Enrichment relative to AAV9, Liver RNA (NHP) [1, 7] [fold] | Fold Enrichment relative to AAV9, Muscle (NHP) [1, 8] [fold] | Fold Enrichment relative to AAV9, Brain (Mouse) (brain; [9]) [fold] | Fold Enrichment relative to AAV9, Brain (NHP) [1, 10] [fold] | Fold Enrichment relative to AAV9, DRG (NHP) ([1]; NGS fold-enrichment, NHP DRG) [fold] | Fold Enrichment relative to AAV9, Heart (NHP) ([1]; NGS fold-enrichment, NHP heart) [fold] | Fold Enrichment relative to AAV9, Liver DNA (NHP) [1, 11] [fold] | Fold Enrichment relative to AAV9, Liver RNA (NHP) [1, 12] [fold] | Fold Enrichment relative to AAV9, Muscle (NHP) [1, 13] [fold] | Fold Enrichment relative to AAV9, Brain (Mouse) (brain; mouse brain) [fold] | Fold Enrichment relative to AAV9, Brain (NHP) [1, 14] [fold] | Fold Enrichment relative to AAV9, DRG (NHP) ([1]; NHP DRG) [fold] | Fold Enrichment relative to AAV9, Heart (NHP) ([1]; NHP heart) [fold] | Fold Enrichment relative to AAV9, Liver DNA (NHP) ([1]; NHP liver, DNA) [fold] | Fold Enrichment relative to AAV9, Liver RNA (NHP) ([1]; NHP liver, RNA) [fold] | further results |
| --- | --- | --- | --- | --- | --- | --- | --- | --- | --- | --- | --- | --- | --- | --- | --- | --- | --- | --- | --- | --- | --- |
| KTINGGGSPHSKAQDKQT | 50.764 | 0.000 | 59.322 | 0.000 | 0.093 | 0.000 | 0.000 | – | – | – | – | – | – | – | – | – | – | – | – | – | – |
| KTDAGHDSPHKSGQNQQT | – | – | – | – | – | – | – | 18.107 | 88.924 | 0.000 | 0.013 | 0.070 | 1.076 | 0.000 | – | – | – | – | – | – | – |
| NTIYGSGSPHSKAQNQQT (peptide inserted in AAV capsid) | 59.707 | 1.739 | 71.267 | 0.000 | 0.209 | 0.000 | 273.69 | – | – | – | – | – | – | – | – | – | – | – | – | – | – |
| KTINGSGSPHSKAQSAHT | – | – | – | – | – | – | – | – | – | – | – | – | – | – | 79.498 | 51.569 | 0.068 | 0.070 | 0.249 | 0.589 | Fold Enrichment relative to AAV9, Muscle (NHP) ([1]; NHP muscle): 0.000 fold |
| KTVNGSGSPHSKAQNQLI | 71.156 | 0.000 | 80.509 | 0.000 | 0.166 | 0.000 | 0.000 | 71.156 | 80.509 | 0.000 | 0.000 | 0.166 | 0.000 | 0.000 | – | – | – | – | – | – | – |
| KEFVGSGSPHSKAQNQQT | – | – | – | – | – | – | – | – | – | – | – | – | – | – | 128.675 | 58.374 | 0.000 | 0.046 | 0.326 | 0.088 | Fold Enrichment relative to AAV9, Muscle (NHP) ([1]; NHP muscle): 0.000 fold |
| KTELWHDSPHKSGQNQQT | – | – | – | – | – | – | – | 9.915 | 85.323 | 0.057 | 0.020 | 0.243 | 0.000 | 0.000 | – | – | – | – | – | – | – |
| KTIIGSGSPHSKAQDRQT | – | – | – | – | – | – | – | – | – | – | – | – | – | – | 53.981 | 58.258 | 1.393 | 0.230 | 0.045 | 0.000 | Fold Enrichment relative to AAV9, Muscle (NHP) ([1]; NHP muscle): 0.219 fold |
| KTINGGGSPHSKAQRQQT | – | – | – | – | – | – | – | – | – | – | – | – | – | – | 147.942 | 50.998 | 0.000 | 0.041 | 0.142 | 0.991 | Fold Enrichment relative to AAV9, Muscle (NHP) ([1]; NHP muscle): 0.000 fold |
| KTINGHDSPHKTGQNQPP | – | – | – | – | – | – | – | 8.865 | 77.357 | 0.000 | 0.149 | 0.096 | 0.000 | 0.000 | – | – | – | – | – | – | – |
| KTINGNGSPHSKSQNQHT | – | – | – | – | – | – | – | – | – | – | – | – | – | – | 56.614 | 51.379 | 0.000 | 0.054 | 0.082 | 0.000 | Fold Enrichment relative to AAV9, Muscle (NHP) ([1]; NHP muscle): 0.000 fold |
| KTEKNSGSPHSKAQNQQT | 74.393 | 0.000 | 73.347 | 0.000 | 0.021 | 0.159 | 0.044 | – | – | – | – | – | – | – | – | – | – | – | – | – | – |
| KTINGSGSPHSKAQRTMT | 100.248 | 0.000 | 80.388 | 0.022 | 1.025 | 1.812 | 0.170 | 100.248 | 80.388 | 0.000 | 0.022 | 1.025 | 1.812 | 0.170 | – | – | – | – | – | – | – |
| KTINGSGSPHSKAQIGMT | – | – | – | – | – | – | – | – | – | – | – | – | – | – | 134.585 | 59.013 | 0.081 | 106.528 | 0.248 | 1.003 | Fold Enrichment relative to AAV9, Muscle (NHP) ([1]; NHP muscle): 0.000 fold |
| KTESHSGSPHSKAQNQQT | 52.506 | 0.000 | 61.947 | 0.000 | 0.106 | 1.480 | 0.000 | – | – | – | – | – | – | – | – | – | – | – | – | – | – |
| KAINGHDSPHKSAQNQET | – | – | – | – | – | – | – | 10.674 | 90.402 | 0.000 | 0.073 | 0.000 | 0.746 | 0.000 | – | – | – | – | – | – | – |
